From ChEMBL document CHEMBL5303573, “Mapping human microbiome drug metabolism by gut bacteria and their genes” (Nature, 2019)

assay: The drug is tested on Bifidobacterium longum subsp. Infantis strain: CCUG52486 for biotransformation. The drug concentrations were measured before and after a 12-h incubation by liquid-chromatography-coupled mass spectrometry (LC–MS); details: 2 µM

| Compound | Bacterial Biotransformation |
| --- | --- |
| COc1c(C)c2c(c(O)c1C/C=C(\C)CCC(=O)OCCN1CCOCC1)C(=O)OC2 [MYCOPHENOLATE MOFETIL] | Compound metabolized |

assay: The drug is tested on Collinsella aerofaciens strain: ATCC25986 for biotransformation. The drug concentrations were measured before and after a 12-h incubation by liquid-chromatography-coupled mass spectrometry (LC–MS); details: 2 µM

| Compound | Bacterial Biotransformation |
| --- | --- |
| COc1c(C)c2c(c(O)c1C/C=C(\C)CCC(=O)OCCN1CCOCC1)C(=O)OC2 [MYCOPHENOLATE MOFETIL] | Compound metabolized |

assay: The drug is tested on Bacteroides caccae strain: ATCC43185 for biotransformation. The drug concentrations were measured before and after a 12-h incubation by liquid-chromatography-coupled mass spectrometry (LC–MS); details: 2 µM

| Compound | Bacterial Biotransformation |
| --- | --- |
| COc1c(C)c2c(c(O)c1C/C=C(\C)CCC(=O)OCCN1CCOCC1)C(=O)OC2 [MYCOPHENOLATE MOFETIL] | Compound metabolized |

assay: The drug is tested on Bacteroides finegoldii strain: DSM17565 for biotransformation. The drug concentrations were measured before and after a 12-h incubation by liquid-chromatography-coupled mass spectrometry (LC–MS); details: 2 µM

| Compound | Bacterial Biotransformation |
| --- | --- |
| COc1c(C)c2c(c(O)c1C/C=C(\C)CCC(=O)OCCN1CCOCC1)C(=O)OC2 [MYCOPHENOLATE MOFETIL] | Compound metabolized |

assay: The drug is tested on Bacteroides fragilis strain: HMW615 for biotransformation. The drug concentrations were measured before and after a 12-h incubation by liquid-chromatography-coupled mass spectrometry (LC–MS); details: 2 µM

| Compound | Bacterial Biotransformation |
| --- | --- |
| COc1c(C)c2c(c(O)c1C/C=C(\C)CCC(=O)OCCN1CCOCC1)C(=O)OC2 [MYCOPHENOLATE MOFETIL] | Compound metabolized |

assay: The drug is tested on Bacteroides fragilis strain: ATCC43859 for biotransformation. The drug concentrations were measured before and after a 12-h incubation by liquid-chromatography-coupled mass spectrometry (LC–MS); details: 2 µM

| Compound | Bacterial Biotransformation |
| --- | --- |
| COc1c(C)c2c(c(O)c1C/C=C(\C)CCC(=O)OCCN1CCOCC1)C(=O)OC2 [MYCOPHENOLATE MOFETIL] | Compound metabolized |

assay: The drug is tested on Bacteroides xylanisolvens strain: DSM18836 for biotransformation. The drug concentrations were measured before and after a 12-h incubation by liquid-chromatography-coupled mass spectrometry (LC–MS); details: 2 µM

| Compound | Bacterial Biotransformation |
| --- | --- |
| COc1c(C)c2c(c(O)c1C/C=C(\C)CCC(=O)OCCN1CCOCC1)C(=O)OC2 [MYCOPHENOLATE MOFETIL] | Compound metabolized |

assay: The drug is tested on Odoribacter splanchnicus strain: fecal isolate for biotransformation. The drug concentrations were measured before and after a 12-h incubation by liquid-chromatography-coupled mass spectrometry (LC–MS); details: 2 µM

| Compound | Bacterial Biotransformation |
| --- | --- |
| COc1c(C)c2c(c(O)c1C/C=C(\C)CCC(=O)OCCN1CCOCC1)C(=O)OC2 [MYCOPHENOLATE MOFETIL] | Compound metabolized |

assay: The drug is tested on Clostridium scindens strain: ATCC35704 for biotransformation. The drug concentrations were measured before and after a 12-h incubation by liquid-chromatography-coupled mass spectrometry (LC–MS); details: 2 µM

| Compound | Bacterial Biotransformation |
| --- | --- |
| COc1c(C)c2c(c(O)c1C/C=C(\C)CCC(=O)OCCN1CCOCC1)C(=O)OC2 [MYCOPHENOLATE MOFETIL] | Compound metabolized |

assay: The drug is tested on Clostridium sporogenes strain: ATCC15579 for biotransformation. The drug concentrations were measured before and after a 12-h incubation by liquid-chromatography-coupled mass spectrometry (LC–MS); details: 2 µM

| Compound | Bacterial Biotransformation |
| --- | --- |
| COc1c(C)c2c(c(O)c1C/C=C(\C)CCC(=O)OCCN1CCOCC1)C(=O)OC2 [MYCOPHENOLATE MOFETIL] | Compound metabolized |

assay: The drug is tested on Coprococcus comes strain: ATCC27758 for biotransformation. The drug concentrations were measured before and after a 12-h incubation by liquid-chromatography-coupled mass spectrometry (LC–MS); format: ADME; design: dose 2 uM, timepoint 0 vs 12 hours; details: 2 µM

| Compound | Bacterial Biotransformation |
| --- | --- |
| COc1c(C)c2c(c(O)c1C/C=C(\C)CCC(=O)OCCN1CCOCC1)C(=O)OC2 [MYCOPHENOLATE MOFETIL] | Compound metabolized |

assay: The drug is tested on Eubacterium hallii strain: DSM3353 for biotransformation. The drug concentrations were measured before and after a 12-h incubation by liquid-chromatography-coupled mass spectrometry (LC–MS); details: anaerobutyricum hallii, 2 µM

| Compound | Bacterial Biotransformation |
| --- | --- |
| COc1c(C)c2c(c(O)c1C/C=C(\C)CCC(=O)OCCN1CCOCC1)C(=O)OC2 [MYCOPHENOLATE MOFETIL] | Compound metabolized |

assay: The drug is tested on Ruminococcus lactaris strain: ATCC29176 for biotransformation. The drug concentrations were measured before and after a 12-h incubation by liquid-chromatography-coupled mass spectrometry (LC–MS); details: 2 µM

| Compound | Bacterial Biotransformation |
| --- | --- |
| COc1c(C)c2c(c(O)c1C/C=C(\C)CCC(=O)OCCN1CCOCC1)C(=O)OC2 [MYCOPHENOLATE MOFETIL] | Compound metabolized |

assay: The drug is tested on Enterobacter cancerogenus strain: ATCC35316 for biotransformation. The drug concentrations were measured before and after a 12-h incubation by liquid-chromatography-coupled mass spectrometry (LC–MS); details: 2 µM

| Compound | Bacterial Biotransformation |
| --- | --- |
| COc1c(C)c2c(c(O)c1C/C=C(\C)CCC(=O)OCCN1CCOCC1)C(=O)OC2 [MYCOPHENOLATE MOFETIL] | Compound metabolized |

assay: The drug is tested on Providencia rettgeri strain: DSM1131 for biotransformation. The drug concentrations were measured before and after a 12-h incubation by liquid-chromatography-coupled mass spectrometry (LC–MS); format: ADME; design: dose 2 uM, timepoint 0 vs 12 hours; details: 2 µM

| Compound | Bacterial Biotransformation |
| --- | --- |
| COc1c(C)c2c(c(O)c1C/C=C(\C)CCC(=O)OCCN1CCOCC1)C(=O)OC2 [MYCOPHENOLATE MOFETIL] | Compound metabolized |

details: bacteroides fragilis, 12 h, 2 µM
Description: The drug is tested on Bacteroides fragilis strain: 3397 (T10) for biotransformation. The drug concentrations were measured before and after a 12-h incubation by liquid-chromatography-coupled mass spectrometry (LC–MS)

| Compound | Bacterial Biotransformation |
| --- | --- |
| COc1c(C)c2c(c(O)c1C/C=C(\C)CCC(=O)OCCN1CCOCC1)C(=O)OC2 [MYCOPHENOLATE MOFETIL] | Compound metabolized |

details: bacteroides intestinalis, 12 h, 2 µM
Description: The drug is tested on Bacteroides intestinalis strain: DSM17393 for biotransformation. The drug concentrations were measured before and after a 12-h incubation by liquid-chromatography-coupled mass spectrometry (LC–MS)

| Compound | Bacterial Biotransformation |
| --- | --- |
| COc1c(C)c2c(c(O)c1C/C=C(\C)CCC(=O)OCCN1CCOCC1)C(=O)OC2 [MYCOPHENOLATE MOFETIL] | Compound metabolized |

details: bacteroides thetaiotaomicron, 12 h, 2 µM
Description: The drug is tested on Bacteroides thetaiotaomicron strain: 3731 for biotransformation. The drug concentrations were measured before and after a 12-h incubation by liquid-chromatography-coupled mass spectrometry (LC–MS)

| Compound | Bacterial Biotransformation |
| --- | --- |
| COc1c(C)c2c(c(O)c1C/C=C(\C)CCC(=O)OCCN1CCOCC1)C(=O)OC2 [MYCOPHENOLATE MOFETIL] | Compound metabolized |

details: parabacteroides distasonis, 12 h, 2 µM
Description: The drug is tested on Parabacteroides distasonis strain: ATCC8503 for biotransformation. The drug concentrations were measured before and after a 12-h incubation by liquid-chromatography-coupled mass spectrometry (LC–MS)

| Compound | Bacterial Biotransformation |
| --- | --- |
| COc1c(C)c2c(c(O)c1C/C=C(\C)CCC(=O)OCCN1CCOCC1)C(=O)OC2 [MYCOPHENOLATE MOFETIL] | Compound metabolized |

details: anaerostipes sp., 12 h, 2 µM
Description: The drug is tested on Anaerostipes sp. strain: fecal isolate for biotransformation. The drug concentrations were measured before and after a 12-h incubation by liquid-chromatography-coupled mass spectrometry (LC–MS)

| Compound | Bacterial Biotransformation |
| --- | --- |
| COc1c(C)c2c(c(O)c1C/C=C(\C)CCC(=O)OCCN1CCOCC1)C(=O)OC2 [MYCOPHENOLATE MOFETIL] | Compound metabolized |
